Assay results as given in patent US20210147466A1, “IMPROVED PROCESSES FOR THE PREPARATION OF GUADECITABINE AND INTERMEDIATES THEREOF” (TEVA CZECH INDUSTRIES s.r.o., priority 2017, published 2021).
Where two headings read alike, the source gives them in different places. Values belong to the compound of their own block, whether it stands above or below them.

How the values were obtained:
[1] = undergoes hydrolytic degradation; cited from earlier work
[2] = assay type: physicochemical
Experimental: Analytical HPLC Method Used for Measuring Guadecitabine Purity
Column: 150×3.0 mm Luna Omega Polar C18, 1.6 μm at 40° C.
Solvent A: 0.15 mL/l formic acid in water, pH adjusted with ammonia to 3.6. Solvent B: acetonitrile Gradient program: […]
Example 23: Comparison of Guadecitabine Sodium Form A Stability in Water at 25° C. and Methanol Water (9/1 v/v) at 40° C.
In water stability of guadecitabine sodium form A was measured as follows.
Instrument method: autosampler temp. was set to 25° C. 10 mg of guadecitabine sodium form A was weighted in 2-mL vial in glovebox and 1 mL of water was added to have concentration exactly 10 mg/mL. Sample was injected freshly after preparation (0 min), 20 min after preparation (20 min) and afterwards every 40 min (duration of single analysis run).

[3] = Stability of guadecitabine sodium form A in methanol water (9/1 v/v) at 40° C. (HPLC contents); assay type: physicochemical
Experimental: Analytical HPLC Method Used for Measuring Guadecitabine Purity Column: 150×3.0 mm Luna Omega Polar C18, 1.6 μm at 40° C. Solvent A: 0.15 mL/l formic acid in water, pH adjusted with ammonia to 3.6. Solvent B: acetonitrile Gradient program: [table] [table] Example 23: Comparison of Guadecitabine Sodium Form A Stability in Water at 25° C. and Methanol Water (9/1 v/v) at 40° C.

[4] = Stability in aqueous media (statements in the description); assay type: physicochemical; details: aqueous phase of chromatography on C18 column

Structure (SMILES): Nc1ncn([C@H]2C[C@H](O)[C@@H](CO)O2)c(=O)n1 [Decitabine]
stability in aqueous media [1]: unstable

HPLC contents (%) Degradant 2a [2]: <0.05%
HPLC contents (%) Degradant 2b [2]: <0.05%
HPLC contents (%) Degradant 2c [2]: 0.14%
HPLC contents (%) Degradant 2d [2]: 0.05%
HPLC contents (%) guadecitabine sodium ([2]; Solution in DMSO, no time point (reference)): 99.82%
HPLC contents (%) guadecitabine sodium ([2]; Solution in water, 10 mg/mL, 25° C., injection time point 0 min): 99.80%
HPLC contents (%) guadecitabine sodium ([2]; Solution in water, 10 mg/mL, 25° C., injection time point 20 min): 99.63%
HPLC contents (%) guadecitabine sodium ([2]; Solution in water, 10 mg/mL, 25° C., injection time point 40 min): 99.39%
HPLC contents (%) guadecitabine sodium ([2]; Solution in water, 10 mg/mL, 25° C., injection time point 80 min): 99.02%
HPLC contents (%) guadecitabine sodium ([2]; Solution in water, 10 mg/mL, 25° C., injection time point 120 min): 98.58%
HPLC contents (%) guadecitabine sodium ([2]; Solution in water, 10 mg/mL, 25° C., injection time point 160 min): 98.16%
HPLC contents (%) guadecitabine sodium ([2]; Solution in water, 10 mg/mL, 25° C., injection time point 200 min): 97.56%
HPLC contents (%) guadecitabine sodium ([2]; Solution in water, 10 mg/mL, 25° C., injection time point 240 min): 97.11%
HPLC contents (%) guadecitabine sodium ([2]; Solution in water, 10 mg/mL, 25° C., injection time point 280 min): 96.29%
HPLC contents (%) Degradant 2a [3]: <0.05%
HPLC contents (%) Degradant 2b [3]: <0.05%
HPLC contents (%) Degradant 2c [3]: 0.14%
HPLC contents (%) Degradant 2d [3]: 0.10%
HPLC contents (%) guadecitabine sodium ([3]; Suspension in methanol/water (9/1), 40° C., injection time point 240 min): 99.76%
Structure (SMILES): Nc1ncn([C@H]2C[C@H](OP(=O)([O-])OC[C@H]3O[C@@H](n4cnc5c(=O)[nH]c(N)nc54)C[C@@H]3O)[C@@H](CO)O2)c(=O)n1.[Na+] [guadecitabine sodium]

stability in aqueous phase [4]: not stable
guadecitabine degradation ([3]; in methanol): significantly suppressed
Structure (SMILES): Nc1ncn([C@H]2C[C@H](OP(=O)(O)OC[C@H]3O[C@@H](n4cnc5c(=O)[nH]c(N)nc54)C[C@@H]3O)[C@@H](CO)O2)c(=O)n1 [guadecitabine, [(2R,3S,5R)-5-(2-amino-6-oxo-3H-purin-9-yl)-3-hydroxyoxolan-2-yl]methyl [(2R,3S,5R)-5-(4-amino-2-oxo-1,3,5-triazin-1-yl)-2-(hydroxymethyl)oxolan-3-yl] hydrogen phosphate]
